Results as given in BindingDB's records for doi:10.1016/S0960-894X(97)10016-6 (1997).
pIC50: −log10 of the molar value.

Target: T1, Progesterone receptor (Oryctolagus cuniculus, UniProt P06186)
T1 sequence (P06186 whole entry): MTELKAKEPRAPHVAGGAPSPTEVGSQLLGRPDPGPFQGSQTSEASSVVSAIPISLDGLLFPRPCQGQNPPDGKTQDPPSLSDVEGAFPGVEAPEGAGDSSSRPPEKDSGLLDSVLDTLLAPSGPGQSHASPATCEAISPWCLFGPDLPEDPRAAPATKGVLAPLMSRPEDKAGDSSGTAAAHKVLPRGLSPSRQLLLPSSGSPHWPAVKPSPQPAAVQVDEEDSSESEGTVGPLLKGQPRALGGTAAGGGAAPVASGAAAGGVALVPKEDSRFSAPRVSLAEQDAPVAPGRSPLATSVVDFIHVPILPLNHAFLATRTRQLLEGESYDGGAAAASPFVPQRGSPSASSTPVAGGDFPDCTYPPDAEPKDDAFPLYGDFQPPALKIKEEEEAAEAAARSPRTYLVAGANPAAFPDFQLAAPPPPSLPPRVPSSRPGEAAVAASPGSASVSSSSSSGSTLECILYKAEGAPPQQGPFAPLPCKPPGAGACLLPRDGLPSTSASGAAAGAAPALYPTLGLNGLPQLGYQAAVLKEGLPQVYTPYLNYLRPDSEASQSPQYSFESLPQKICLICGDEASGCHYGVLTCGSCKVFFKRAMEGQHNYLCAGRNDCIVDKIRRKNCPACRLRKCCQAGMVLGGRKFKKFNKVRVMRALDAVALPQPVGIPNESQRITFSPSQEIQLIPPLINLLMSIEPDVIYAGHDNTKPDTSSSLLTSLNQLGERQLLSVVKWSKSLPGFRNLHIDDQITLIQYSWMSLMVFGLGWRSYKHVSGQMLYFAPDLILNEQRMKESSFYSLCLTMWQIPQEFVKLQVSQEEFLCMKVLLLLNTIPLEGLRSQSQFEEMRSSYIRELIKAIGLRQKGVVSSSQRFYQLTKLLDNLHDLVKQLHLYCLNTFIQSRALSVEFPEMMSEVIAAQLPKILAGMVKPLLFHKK
Assay: ChEBML_159701
From the text: Binding affinity determined by ability to displace [3H]R5020 radioligand using uterine progesterone receptor obtained from estrogen-primed rabbit

Compound | pIC50
O=S(=O)(NNCC1=NN(c2ccc(F)cc2)C2C(Cc3cccc4ccccc34)CCCC12)c1ccccc1 (configuration not stated) [1-(4-Fluoro-phenyl)-3-(N'-[(E)-methylene]benzenesulfonohydrazide)-7-naphthalen-1-ylmethyl-octahydro-indazole] | < 5.00
O=C(NNCC1=NN(c2ccc(F)cc2)C2C(Cc3cccc4ccccc34)CCCC12)c1ccccc1 (configuration not stated) | < 5.00
